Some results are limits rather than exact numbers.

Regarding `O=C(NC(Cc1ccccc1)C(=O)O)c1ccc(-c2ccc(OCc3ccccc3)cc2)nc1` (centres undefined), the melting point came out at 240 °C.

On to `COC(=O)c1c(C)c(OC)cc(O[Si](C)(C)C(C)(C)C(C)C)c1C=O`, for which the melting point fell in the range of 69 to 70 °C.

On to `CC1(C)CC(=O)c2c(C(=O)Nc3ccsc3)c[nH]c2C1`, for which the melting point is 217 to 218 °C.

`CCOc1cc(-c2cc(C(F)(F)F)n3ncc(C(=O)Nc4cccc(S(=O)(=O)NC5CC5)c4)c3n2)ccc1C(F)(F)F` returned a melting point of 225 °C.

`COc1ccc(CNc2nnc(N(C)CCCO)c3ccc(Cl)cc23)cc1Cl`: the melting point lay in the range of 115 to 117 °C.

Take `O=C1CC(CCCl)c2ccccc2N1` (centres undefined): the melting point was 112 to 113 °C.

Turning to `CCc1nc(C)c(CC(=O)N(CC)CC)c(=O)n1Cc1ccc(-c2ccccc2-c2nnn[nH]2)cc1`, the melting point lay within 125 to 131 °C.

On to `CON=C(C(=O)OC)c1ccccc1ON=C(C)c1cccc(C)c1`, for which the melting point is 90 °C.

Regarding `C#CCn1c(C(F)(F)F)c(C=O)c2ccccc21`, the melting point was found to be 106 °C.

The compound `Nc1cc2[nH]c(=O)oc2cc1N` returned a melting point of over 360 °C.

Regarding `CCOC(=O)c1cc(Cl)cnc1N`, the melting point lay in the range of 120 to 122 °C.

`Oc1cccc(-c2cc3n(n2)-c2ccccc2CC3)c1` registered a melting point of 172 to 175 °C.

In the case of `COC(=O)CCc1cccc(Cl)c1C(=O)CCCNC(C)=O`, the melting point fell in the range of 51 to 52 °C.

In turn, `COC(=O)CCCCCCc1ncsc1C(=O)O` yielded a melting point of 113 to 114 °C.

In turn, `O=C(O)c1ccc2c(CCNCc3cccc(OCC(F)(F)F)c3)c[nH]c2c1` yielded a melting point of 232 to 235 °C.

`N#Cc1ccc2c(c1)nc1n2CCC(=O)N1` yielded a melting point of over 340 °C.

Turning to `COC(=O)C(Cc1cc(OC)cc(OC)c1)c1ccc(O)cc1` (centres undefined), the melting point lay in the range of 63 to 65 °C.

`CSc1ccc(-c2nc(S)[nH]c2-c2ccc(SC)cc2)cc1` returned a melting point of 280 °C.

The compound `CS(=O)(=O)c1ccc(C2=NN(S(=O)(=O)c3ccc(I)cc3)CCC2)cc1` displayed a melting point of 198 to 204 °C.

Turning to `CC(C)(C)OC(=O)N1CCN2C(=O)N(c3cc(Cl)cc(Cl)c3)C(=O)C2(Cc2ccc(Br)cc2)C1` (centres undefined), the melting point is 79.5 °C.

Consider `CCc1cccc(CC)c1NC(=O)N(CC1CCCCC1)C1CCC(c2ccccc2)CC1` (centres undefined), for which the melting point is 166 to 168 °C.

`COc1cc2ncc(C#N)c(Nc3cc(Cl)ccc3O)c2cc1OC` showed a melting point of over 250 °C.

Regarding `COc1cc2c(cc1OC)C(c1cccc(C(F)(F)F)c1)=NN=C(C)C2`, the melting point fell in the range of 134 to 135 °C.

The compound `COc1cccc(Oc2ccc(NC(C)=O)cc2)c1` yielded a melting point of 103 to 105 °C.

Regarding `CCOC(=O)c1c(C)cc(O)c(C(=O)OCC)c1O`, the melting point was in the range of 61 to 62 °C.

Take `Cc1cc(C)c2nc(NC3CCN(CCCS(N)(=O)=O)CC3)n(Cc3nc(C)ccc3O)c2c1`: the melting point came to 180 °C.

With `O=S(=O)(c1ccc(C(CC2CCOCC2)c2ccc(-c3nnc(CO)s3)[nH]2)cc1)C1CC1` (centres undefined), the melting point is 208 to 209 °C.

Consider `O=C(O)C1NCCc2c1[nH]c1ccc(F)cc21` (centres undefined), for which the melting point was 237 to 238 °C.

On to `CC(=O)NC1(c2ccc(C(C)N3CCN(c4ncccn4)CC3)cc2)CC1` (centres undefined), for which the melting point was in the range of 124 to 125 °C.

`Fc1cc(F)c2c(c1)C[C@@H](n1c(CN3CCOCC3)c[nH]c1=S)CC2` showed a melting point of 182 to 184 °C.

In turn, `Nc1nc(C(=Cc2cccc3ccccc23)C(=O)O)cs1` registered a melting point of 220 °C.

Compound `CCN1CN(C)CN(c2cc(Cl)ccc2C)C1=S` showed a melting point of 129 to 131 °C.

For the compound `CNC(=O)c1ccccc1Nc1nc(Nc2ccc3c(c2)CCN(CCOC)CC3)ncc1Cl`, the melting point lay in the range of 178 to 183 °C.

Regarding `O=c1ccc(-c2ccc(C(F)(F)F)cc2)n[nH]1`, the melting point lay in the range of 191 to 193 °C.

The compound `COc1ccc(Br)c(OC)c1-c1ccc(C[C@H](NC(=O)c2c(Cl)cccc2Cl)C(=O)O)cc1` came in with a melting point of 205 to 206 °C.

In the case of `COCc1c(C(=O)O)ncc2[nH]c3cccc(CN4CCOCC4)c3c12`, the melting point fell in the range of 253 to 255 °C.

The compound `CCCCC(CC)n1nnc2c(Nc3c(Br)cc(OC)cc3OC)nc(C)cc21` (centres undefined) yielded a melting point of 127 to 128 °C.

`CC(=O)Oc1cc(C=CC(=O)c2ccccc2)cc([N+](=O)[O-])c1OC(C)=O` yielded a melting point of 183 to 185 °C.

Compound `COc1cnc(CSc2nc3cc4c(cc3[nH]2)OC(F)(F)O4)cc1OC` registered a melting point of 189 to 191 °C.

In the case of `Nc1c(CC(=O)N2CCOCC2)cccc1C(=O)c1ccccc1`, the melting point was in the range of 156 to 158 °C.

`Cc1c(C(=O)O)c(CC(=O)O)n(C)c1C(=O)c1cccnc1` came in with a melting point of 186 to 188 °C.

Take `CC(=O)Nc1ncc(SCC(=O)O)s1`: the melting point was found to be 210 °C.

The compound `Cc1nc(N)nc(N)c1-c1cccc2ccccc12` had a melting point of 224 to 225 °C.

As to `CC(C)NC(=O)c1nc(-c2ccccc2)c(-c2ccc(=O)[nH]n2)s1`, the melting point was over 250 °C.

In turn, `COc1c(-c2ccc3cc(NS(C)(=O)=O)ccc3c2)cc(N2CCNC2=O)cc1C(C)(C)C` registered a melting point of 284 to 286 °C.

As for `O=Cc1cc2n(c1)Cc1ccccc1-n1ccnc1-2`, the melting point was 203 to 205 °C.

Consider `Cc1cc(CCC2(C)NC(=O)NC2=O)cc(C(C)(C)C)c1O` (centres undefined), for which the melting point is 210 to 211 °C.

In turn, `Nc1nc(-c2cc(Cl)ccc2Cl)nc(N2CCC(=O)CC2)n1` displayed a melting point of 223 to 225 °C.

`CCCCCCCCCCCCCCCCNC(=O)c1cccnc1` had a melting point of 85 to 87 °C.

On to `Cc1cc(C(=Cc2nnnn2C)c2ccc(F)c(C)c2)ccc1F`, for which the melting point was in the range of 138 to 139 °C.

`CCOC(=O)c1ccc(Cn2cnc3ncccc32)cc1` had a melting point of 142 to 143 °C.

As for `Cc1noc(NS(=O)(=O)c2ccc(C(C)(C)C)cc2)c1C`, the melting point lay within 151 to 154 °C.

Compound `O=c1nc(-c2cccc(CCOP(=O)(O)O)n2)sc2ccccc12` registered a melting point of 235 to 237 °C.

For `Cc1nc2ccc3cccnc3c2nc1C`, the melting point was 159 to 162 °C.

In turn, `CN1CCN(C2Cc3ccccc3Sc3cc(F)c(F)cc32)CC1` (centres undefined) registered a melting point of 106 to 108 °C.

The compound `CCOC(=O)c1cc2ccc(SCc3ccc(OC)cc3)cc2nc1Cl` showed a melting point of 110 to 112 °C.

`FC(F)(F)c1ccn(-c2cc(N3CCOCC3)nc3ccccc23)n1`: the melting point was in the range of 118 to 120 °C.

For `CCCCCCCCCCCCc1nnn(C(C(=O)O)c2ccccc2)n1` (centres undefined), the melting point fell in the range of 76 to 78 °C.

Consider `Cn1c(=O)c([N+](=O)[O-])c(O)c2ccccc21`, for which the melting point was 193 °C.

As for `Cc1ccc(-c2ccc3c(c2)C=C(C(=O)Nc2ccc(CN4CCN(C)CC4)cc2)CC3)cc1`, the melting point was in the range of 174 to 175 °C.

`CCOC(=O)CC(=O)N=C(SC)N(C)N=Cc1ccccc1`: the melting point fell in the range of 74 to 75 °C.

Regarding `CN(C)Cc1cc(Cc2ccccc2)c(O)c(Cc2ccccc2)c1`, the melting point was in the range of 112 to 114 °C.

Turning to `OCC[C@H]1[C@@H]2O[C@@H]2C(F)(F)[C@@H]1O`, the melting point was in the range of 59 to 59.5 °C.

As for `N#CCSC(=O)c1ccco1`, the melting point lay within 76 to 78 °C.

Consider `Cn1ncc2c1-c1c(Oc3cccnc3)sc(C(=O)O)c1CC2`, for which the melting point is 124 to 125 °C.

Take `COc1cc(N)c(Cl)cc1C(=O)NC1C=NN(C)C1` (centres undefined): the melting point fell in the range of 173 to 175 °C.

In turn, `CCN(CC)C(=O)CCc1nc(-c2ccccc2)nc2c(C)cccc12` came in with a melting point of 80 °C.

Compound `C=C1CC2(C)C(O)CCC2C2C(C)CC3=CC(=O)CCC3C12` (centres undefined) showed a melting point of 138 to 139 °C.

In the case of `CCCc1nc2c(N)nc3cc(OCc4ccccc4OC)ccc3c2n1CC(C)C`, the melting point was in the range of 205 to 206 °C.

`CCOC(C)C(=O)c1cc(C(C)(C)C)c(O)c(C(C)(C)C)c1` (centres undefined) gave a melting point of 64 °C.

`CC1(C)C(c2ccncc2)=Nc2ccc(-c3ccc(=O)[nH]n3)cc21` registered a melting point of 305 to 307 °C.

In the case of `COc1ccc2c(c1)c(Cc1cc(=O)n(-c3cccc(C(F)(F)F)c3)[nH]1)c(C)n2C(=O)c1ccccc1`, the melting point fell in the range of 60 to 64.5 °C.

In turn, `COC(=O)c1cc(C(=O)NCCNC(C)=O)c2cc(Cc3ccc(F)cc3)cnc2c1O` registered a melting point of 251 to 253 °C.

The compound `COc1ccc(Cc2nc3cccc(NCc4cccnc4)c3o2)cc1OC1CCCC1` displayed a melting point of 90 to 92 °C.

The compound `Cc1cc(NC(=O)c2c(C(F)(F)F)nc3c(C(F)(F)F)cccc3c2O)no1` displayed a melting point of 216 °C.

Take `Nc1cc(OCc2cccc(Cl)c2)c(C(=O)NC2CN3CCC2CC3)cc1Cl` (centres undefined): the melting point fell in the range of 168 to 169 °C.

Take `c1ccc(CN2C(=NCCCn3ccnc3)c3cccc4cccc2c34)cc1`: the melting point lay within 90 to 93 °C.

`COc1ccc(S(=O)(=O)N2C(=O)C(c3cc(C)ccc3OC)(N3C[C@H](O)C[C@H]3C(=O)N(C)C)c3cc(Cl)ccc32)c(OC(F)(F)F)c1` (some centres undefined) showed a melting point of 192 to 193 °C.

For `O=C(C1CC1)N1CCC2(CC1)Cc1ccccc1O2`, the melting point lay in the range of 111 to 113 °C.

The compound `CC(C)c1ccccc1-c1nc(-c2ccccc2)n[nH]1` had a melting point of 165 to 167 °C.

In turn, `COc1cc(CCNC(=O)N(C)O)ccc1OCc1ccccc1` came in with a melting point of 109 to 111 °C.

`CSc1ccc(-c2coc3ccc(-c4nnc(C)o4)cc23)c(Cl)c1` registered a melting point of 153 to 154 °C.

Turning to `COc1cccc(Oc2cc(-c3ccc(C(F)(F)F)cc3)ccn2)c1`, the melting point fell in the range of 77.5 to 79.6 °C.

Turning to `Cn1cc(C(=O)O)cc1C(=O)OC(c1ccc2c(c1)OCO2)c1ccc2c(c1)OCO2`, the melting point was 103 to 110 °C.

Consider `CC(C)=Cc1ccc(/C=C/CCl)cc1`, for which the melting point was in the range of 48 to 50 °C.

For the compound `CN1CCN(c2ccc(NC(=O)c3cc4ccccc4s3)cc2C#N)CC1`, the melting point lay in the range of 263 to 264 °C.

Take `CCCc1c(OCCCOc2ccccc2)ccc2c1OC(CCC(=O)O)(CCC(=O)O)CC2O` (centres undefined): the melting point came out at 132 °C.

`COCOc1ccccc1-c1cc(-c2cc([N+](=O)[O-])ccc2Cl)c(C#N)c(NC(=O)c2cccs2)n1` gave a melting point of 208 to 209 °C.

`O=c1[nH]nc(Cc2ccncn2)c2ccccc12` registered a melting point of 204 to 206 °C.

One may read the melting point as the temperature, or range, at which the solid turns liquid.

Source of the values: a melting point compilation (Tetko et al.; mined from patent text by program, amines drawn as free bases though some values may be those of a salt).
